We go through 24 compounds from patent publication US10227357B2, “Compounds and methods for kinase modulation, and indications therefor” (Plexxikon Inc., priority 2012, dated 2019).

The target of one assay is T1, c-kit kinase (Homo sapiens, UniProt P10721).
T1 construct: The c-kit (or kinase domain thereof) is an active kinase in AlphaScreen; poly-Histidine tag (in-house protein only) (cleaved yes); host or cells: E. coli BL21(DE3)RIL, co-expressed with PTP1B
As to the kind of experiment: c-Kit biochemical assay, AlphaScreen, 10 μM ATP. The settings on record: c-kit biochemical inhibitory activity; read-out: Biochemical activity (IC50 μM) Kit. The method, boiled down: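 His-tagged c-Kit expressed in E. coli with co-expressed PTP1B (dephosphorylated), tag removed; 0.1 ng per reaction with biotinylated-peptide substrate in 50 mM HEPES pH 7.2, 5 mM MgCl2, 5 mM MnCl2, 5% DMSO, 10 μM ATP, 1 h at room temperature. Phosphorylation detected by AlphaScreen (streptavidin donor, PY20 acceptor beads); IC50 from 8-point 1:3 dilution series.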

In another assay the target is T2, c-kit mutant D816V (Homo sapiens, UniProt P10721, D816V/DEL694-753).
T2 construct: residues 551-934, kinase insertion domain residues 694-753 deleted; 6x-histidine (N); made in house; host or cells: E. coli Arctic Express (DE3) RIL (Stratagene)
As to the kind of experiment: c-Kit mutant D816V biochemical assay, AlphaScreen. The settings on record: c-kit D816V biochemical inhibitory activity; read-out: Biochemical activity (IC50 μM) Kit D816V. The method, boiled down:
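Purified His-tagged c-Kit D816V (E. coli-expressed) assayed in 25 mM HEPES pH 7.2 with Mg/Mn, 5% DMSO and 10 μM ATP, 30 min at room temperature, 8-point 1:3 dilutions. Phosphorylation detected by AlphaScreen with streptavidin donor and PY20 acceptor beads; IC50 from signal versus concentration.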

T2 sequence (P10721 with tags, fused parts or gaps DEL694-753/D816V): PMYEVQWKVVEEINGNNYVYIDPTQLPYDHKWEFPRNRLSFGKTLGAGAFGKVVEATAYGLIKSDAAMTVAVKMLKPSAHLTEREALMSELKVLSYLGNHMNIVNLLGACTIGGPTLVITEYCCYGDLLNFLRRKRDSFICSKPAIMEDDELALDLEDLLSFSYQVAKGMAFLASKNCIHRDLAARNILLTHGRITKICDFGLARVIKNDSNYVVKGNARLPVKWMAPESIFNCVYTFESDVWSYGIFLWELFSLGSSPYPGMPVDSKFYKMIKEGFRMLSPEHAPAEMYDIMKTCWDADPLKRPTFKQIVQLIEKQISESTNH
T1 sequence (P10721 26-976): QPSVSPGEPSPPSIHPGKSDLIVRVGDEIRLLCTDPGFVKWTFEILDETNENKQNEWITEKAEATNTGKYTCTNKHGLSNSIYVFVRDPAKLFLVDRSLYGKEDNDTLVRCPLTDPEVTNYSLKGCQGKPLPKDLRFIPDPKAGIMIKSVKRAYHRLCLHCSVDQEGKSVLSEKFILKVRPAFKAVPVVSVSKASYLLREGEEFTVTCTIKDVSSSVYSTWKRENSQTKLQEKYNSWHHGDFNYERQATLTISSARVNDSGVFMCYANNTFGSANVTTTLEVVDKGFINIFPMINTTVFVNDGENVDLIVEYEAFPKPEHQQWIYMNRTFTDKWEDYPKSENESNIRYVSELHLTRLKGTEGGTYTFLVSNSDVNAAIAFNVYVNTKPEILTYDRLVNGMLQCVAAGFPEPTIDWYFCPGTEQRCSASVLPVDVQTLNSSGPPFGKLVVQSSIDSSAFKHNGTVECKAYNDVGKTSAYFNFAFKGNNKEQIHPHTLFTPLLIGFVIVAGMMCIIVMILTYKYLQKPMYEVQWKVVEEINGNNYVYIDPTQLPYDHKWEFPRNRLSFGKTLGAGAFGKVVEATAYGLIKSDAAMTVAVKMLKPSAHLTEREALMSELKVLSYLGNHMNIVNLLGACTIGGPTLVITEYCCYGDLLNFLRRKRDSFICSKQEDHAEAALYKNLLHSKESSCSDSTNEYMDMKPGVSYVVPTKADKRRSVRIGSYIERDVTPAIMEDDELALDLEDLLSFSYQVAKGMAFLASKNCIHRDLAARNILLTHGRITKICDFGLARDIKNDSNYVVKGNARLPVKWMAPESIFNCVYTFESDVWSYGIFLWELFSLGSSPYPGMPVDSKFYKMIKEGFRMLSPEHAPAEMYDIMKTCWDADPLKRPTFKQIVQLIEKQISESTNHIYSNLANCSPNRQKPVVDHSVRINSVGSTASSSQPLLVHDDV

For `C[C@H](NC(=O)N1CCN(c2ncnc3cc(C4=CC(C)(C)NC(C)(C)C4)sc23)CC1)c1cccc(Cl)c1` [P-0569, N-[(1S)-1-(3-chlorophenyl)ethyl]-4-[6-(2,2,6,6-tetramethyl-1,3-dihydropyridin-4-yl)thieno[3,2-d]pyrimidin-4-yl]piperazine-1-carboxamide], the IC50 at c-kit kinase was in the range of 10 to 200 µM; on c-kit mutant D816V, 0.0001 to 1 µM.
With `O=C(C1CC1)N1CC=C(c2cc3ncnc(-c4ccc(NS(=O)(=O)c5ccc(F)cc5)cc4)c3s2)CC1` [P-0570, N-[4-[6-[1-(cyclopropanecarbonyl)-3,6-dihydro-2H-pyridin-4-yl]thieno[3,2-d]pyrimidin-4-yl]phenyl]-4-fluoro-benzenesulfonamide], the IC50 on c-kit kinase and at c-kit mutant D816V was 0.0001 to 1 µM throughout.
Turning to `O=C(C1CC1)N1CC=C(c2cc3ncnc(-c4ccc(NS(=O)(=O)C5CC5)cc4)c3s2)CC1` [P-0571, N-[4-[6-[1-(cyclopropanecarbonyl)-3,6-dihydro-2H-pyridin-4-yl]thieno[3,2-d]pyrimidin-4-yl]phenyl]cyclopropanesulfonamide], the IC50 at c-kit kinase and on c-kit mutant D816V was 0.0001 to 1 µM each time.
For `CS(=O)(=O)Nc1ccc(-c2ncnc3cc(C4=CCN(C(=O)C5CC5)CC4)sc23)cc1` [P-0572, N-[4-[6-[1-(cyclopropanecarbonyl)-3,6-dihydro-2H-pyridin-4-yl]thieno[3,2-d]pyrimidin-4-yl]phenyl]methanesulfonamide], the IC50 at c-kit kinase and on c-kit mutant D816V was 0.0001 to 1 µM each time.
On to `C[C@H](NC(=O)N1CC=C(c2ncnc3cc(-c4ccc(F)cc4)sc23)CC1)c1cccc(OC(F)F)c1` [P-0573, N-[(1S)-1-[3-(difluoromethoxy)phenyl]ethyl]-4-[6-(4-fluorophenyl)thieno[3,2-d]pyrimidin-4-yl]-3,6-dihydro-2H-pyridine-1-carboxamide], for which the IC50 lay in the range of 10 to 200 µM at c-kit kinase and 1 to 10 µM at c-kit mutant D816V.
On to `COc1cccc([C@H](C)NC(=O)N2CCN(c3ncnc4cc(C5=CC(C)(C)NC(C)(C)C5)sc34)CC2)c1` [P-0574, N-[(1S)-1-(3-methoxyphenyl)ethyl]-4-[6-(2,2,6,6-tetramethyl-1,3-dihydropyridin-4-yl)thieno[3,2-d]pyrimidin-4-yl]piperazine-1-carboxamide], for which the IC50 on c-kit kinase lay in the range of 1 to 10 µM; on c-kit mutant D816V, 0.0001 to 1 µM.
Turning to `C[C@H](NC(=O)N1CCN(c2ncnc3cc(-c4ccc(F)cc4)sc23)CC1(C)C)c1ccc(Cl)cc1` [P-0575, N-[(1S)-1-(4-chlorophenyl)ethyl]-4-[6-(4-fluorophenyl)thieno[3,2-d]pyrimidin-4-yl]-2,2-dimethyl-piperazine-1-carboxamide], the results for the IC50 at c-kit kinase and at c-kit mutant D816V were 10 to 200 µM and 0.0001 to 1 µM, respectively.
Taken in the same sequence, the figures for `COc1ccc([C@H](C)NC(=O)N2CCN(c3ncnc4cc(-c5ccc(F)cc5)sc34)CC2(C)C)cc1` [P-0576, 4-[6-(4-fluorophenyl)thieno[3,2-d]pyrimidin-4-yl]-N-[(1S)-1-(4-methoxyphenyl)ethyl]-2,2-dimethyl-piperazine-1-carboxamide] were 10 to 200 µM and 0.0001 to 1 µM.
Taken in the same sequence, the figures for `C[C@H](NC(=O)N1CCN(c2ncnc3cc(-c4ccc(F)cc4)sc23)CC1(C)C)c1cccc(OC(F)F)c1` [P-0577, N-[(1S)-1-[3-(difluoromethoxy)phenyl]ethyl]-4-[6-(4-fluorophenyl)thieno[3,2-d]pyrimidin-4-yl]-2,2-dimethyl-piperazine-1-carboxamide] were 10 to 200 µM and 0.0001 to 1 µM.
As to `C[C@H](NC(=O)N1CC=C(c2ncnc3cc(-c4ccc(F)cc4)sc23)CC1)c1cccc(Cl)c1` [P-0579, N-[(1S)-1-(3-chlorophenyl)ethyl]-4-[6-(4-fluorophenyl)thieno[3,2-d]pyrimidin-4-yl]-3,6-dihydro-2H-pyridine-1-carboxamide], the figures for the IC50 at c-kit kinase and on c-kit mutant D816V were 10 to 200 µM and 1 to 10 µM, respectively.
`C[C@H](NC(=O)N1CCN(c2ncnc3cc(-c4ccc(F)cc4)sc23)CC1(C)C)c1cccc(Cl)c1` [P-0580, N-[(1S)-1-(3-chlorophenyl)ethyl]-4-[6-(4-fluorophenyl)thieno[3,2-d]pyrimidin-4-yl]-2,2-dimethyl-piperazine-1-carboxamide]: the half-maximal inhibitory concentration (IC50) lay within 10 to 200 µM at c-kit kinase and 0.0001 to 1 µM at c-kit mutant D816V.
Taken in the same sequence, the figures for `COc1cccc([C@H](C)NC(=O)N2CC=C(c3ncnc4cc(-c5ccc(F)cc5)sc34)CC2)c1` [P-0581, 4-[6-(4-fluorophenyl)thieno[3,2-d]pyrimidin-4-yl]-N-[(1S)-1-(3-methoxyphenyl)ethyl]-3,6-dihydro-2H-pyridine-1-carboxamide] were 1 to 10 µM and 0.0001 to 1 µM.
With `COc1cccc([C@H](C)NC(=O)N2CC=C(c3ncnc4cc(-c5cn(C)nc5C)sc34)CC2)c1` [P-0582, 4-[6-(1,3-dimethylpyrazol-4-yl)thieno[3,2-d]pyrimidin-4-yl]-N-[(1S)-1-(3-methoxyphenyl)ethyl]-3,6-dihydro-2H-pyridine-1-carboxamide], the IC50 at c-kit kinase lay in the range of 1 to 10 µM; on c-kit mutant D816V it was 0.0001 to 1 µM.
For `Cc1ccc(S(=O)(=O)Nc2ccc(-c3ncnc4cc(C5=CCN(C(=O)C6CC6)CC5)sc34)cc2)cc1` [P-0583, N-[4-[6-[1-(cyclopropanecarbonyl)-3,6-dihydro-2H-pyridin-4-yl]thieno[3,2-d]pyrimidin-4-yl]phenyl]-4-methyl-benzenesulfonamide], the IC50 at c-kit kinase and at c-kit mutant D816V was 0.0001 to 1 µM throughout.
Turning to `Cc1nn(C)cc1-c1cc2ncnc(N3CCN(C(=O)N[C@@H](C)c4cccc(F)c4)[C@H](C)C3)c2s1` [P-0584, (2R)-4-[6-(1,3-dimethylpyrazol-4-yl)thieno[3,2-d]pyrimidin-4-yl]-N-[(1S)-1-(3-fluorophenyl)ethyl]-2-methyl-piperazine-1-carboxamide], the IC50 was in the range of 1 to 10 µM at c-kit kinase and 0.0001 to 1 µM on c-kit mutant D816V.
Take `C[C@H](NC(=O)N1CCN(c2ncnc3cc(-c4ccc(F)cc4)sc23)C[C@H]1C)c1cccc(F)c1` [P-0585, (2R)-N-[(1S)-1-(3-fluorophenyl)ethyl]-4-[6-(4-fluorophenyl)thieno[3,2-d]pyrimidin-4-yl]-2-methyl-piperazine-1-carboxamide]: the IC50 at c-kit kinase and at c-kit mutant D816V was 1 to 10 µM each time.
Regarding `C[C@H](NC(=O)N1CCN(c2ncnc3cc(-c4ccc(F)cc4)sc23)C[C@H]1C)c1cccc(OC(F)F)c1` [P-0586, (2R)-N-[(1S)-1-[3-(difluoromethoxy)phenyl]ethyl]-4-[6-(4-fluorophenyl)thieno[3,2-d]pyrimidin-4-yl]-2-methyl-piperazine-1-carboxamide], the IC50 at c-kit kinase is 1 to 10 µM; on c-kit mutant D816V, 0.0001 to 1 µM.
The matching figures for `Cc1nn(C)cc1-c1cc2ncnc(N3CCN(C(=O)N[C@@H](C)c4cccc(OC(F)F)c4)[C@H](C)C3)c2s1` [P-0587, (2R)-N-[(1S)-1-[3-(difluoromethoxy)phenyl]ethyl]-4-[6-(1,3-dimethylpyrazol-4-yl)thieno[3,2-d]pyrimidin-4-yl]-2-methyl-piperazine-1-carboxamide]: 10 to 200 µM and 0.0001 to 1 µM.
Take `O=C(NCc1ccc(F)cc1)N1CCN(c2ncnc3cc(C4CCN(C(=O)C5CC5)CC4)sc23)CC1` [P-0588, 4-[6-[1-(cyclopropanecarbonyl)-4-piperidyl]thieno[3,2-d]pyrimidin-4-yl]-N-[(4-fluorophenyl)methyl]piperazine-1-carboxamide]: the figures for the IC50 at c-kit kinase and at c-kit mutant D816V were 10 to 200 µM and 0.0001 to 1 µM, respectively.
`C[C@H](NC(=O)N1CCN(c2ncnc3cc(N4CCOCC4)sc23)CC1)c1ccc(F)cc1` [P-0589, N-[(1S)-1-(4-fluorophenyl)ethyl]-4-(6-morpholinothieno[3,2-d]pyrimidin-4-yl)piperazine-1-carboxamide]: the values for the IC50 on c-kit kinase and at c-kit mutant D816V were 10 to 200 µM and 0.0001 to 1 µM, respectively.
For `Cc1ccc(S(=O)(=O)Nc2ccc(-c3ncnc4cc(C5=CCN(C(=O)N6CCOCC6)CC5)sc34)cc2)cc1` [P-0590, 4-methyl-N-[4-[6-[1-(morpholine-4-carbonyl)-3,6-dihydro-2H-pyridin-4-yl]thieno[3,2-d]pyrimidin-4-yl]phenyl]benzenesulfonamide], the IC50 at c-kit kinase and on c-kit mutant D816V was 0.0001 to 1 µM in each case.
For the compound `Cc1nn(C)cc1-c1cc2ncnc(N3CCN(C(=O)N[C@@H](C)c4cccc(Cl)c4)[C@H](C)C3)c2s1` [P-0591, (2R)-N-[(1S)-1-(3-chlorophenyl)ethyl]-4-[6-(1,3-dimethylpyrazol-4-yl)thieno[3,2-d]pyrimidin-4-yl]-2-methyl-piperazine-1-carboxamide], the IC50 is 10 to 200 µM on c-kit kinase and 0.0001 to 1 µM at c-kit mutant D816V.
As for `Cc1ccc(S(=O)(=O)Nc2ccc(-c3ncnc4cc(C5CCNCC5)sc34)cc2)cc1` [P-0592, 4-methyl-N-[4-[6-(4-piperidyl)thieno[3,2-d]pyrimidin-4-yl]phenyl]benzenesulfonamide], the IC50 on c-kit kinase lay within 10 to 200 µM; at c-kit mutant D816V it was 0.0001 to 1 µM.
`C[C@H](NC(=O)N1CCN(c2ncnc3cc(-c4ccc(F)cc4)sc23)CC1(C)C)c1ccc(F)cc1` [P-0593, N-[(1S)-1-(4-fluorophenyl)ethyl]-4-[6-(4-fluorophenyl)thieno[3,2-d]pyrimidin-4-yl]-2,2-dimethyl-piperazine-1-carboxamide]: the IC50 at c-kit kinase lay in the range of 10 to 200 µM; on c-kit mutant D816V it was 0.0001 to 1 µM.
